# Measured values taken from patent publication US6683027B2, “Herbicidal mixtures” (BASF Aktienegesellschaft, priority 2000, dated 2004).
# Experiments:
# Format in all cases: in vivo
# Alopecurus myosuroides [1] = experiment: greenhouse pre-emergence trial, percent damage vs untreated control 21 days after treatment; conditions: ALOMY; for JV 485 alone (% control): Example 3
# Lamium purpureum [2] = experiment: as above; conditions: LAMPU, Example 1A
# Lolium perenne [3] = experiment: as above; conditions: 60 g/ha, LOLPE, Example 1A
# Papaver rhoeas [4] = experiment: as above; conditions: 60 g/ha, PAPRH, Example 1A
# Setaria viridis [5] = experiment: as above; conditions: SETVI, Example 1A
# Stellaria media [6] = experiment: as above; conditions: 60 g/ha, STEME, Example 1A
# Veronica persica [7] = experiment: as above; conditions: VERPE, Example 1A
# Galium aparine [8] = experiment: as above; conditions: GALAP; for JV 485 alone (% control): Example 3
# Alopecurus myosuroides [9] = experiment: greenhouse post-emergence trial, percent damage vs untreated control 21 days after treatment; conditions: ALOMY; for IPU alone (% control): Example 1B; for MCPA alone (% control): Example 4; for fenoxaprop alone (% control): Example 13; for flupyrsulfuron alone (% control): Example 5; for pendimethalin alone (% control): Example 14
# Description: (§1) The trials are carried out under greenhouse conditions in pre- and post-emergence applications. The plant seeds are sown in pots containing a loamy sand soil (0.5 l). The herbicides are applied as single treatments, or in a combination comprising a compound of formula I and compound selected from group (2) as defined above, before or after emergence of weeds and crop. The herbicidal performance is assessed as percent damage in comparison to the untreated control plants. The assessment is done 21 days after the treatment. Wheat and barley are treated at the 3-4 leaf stage, the broad-leaf weeds at the 2-4 leaf stage and annual grasses at the 2-3 leaf stage.
# Apera spica-venti = experiment: as above; conditions: APESV; for cinidon-ethyl alone (% control): Example 10; for clodinafop alone (% control): Example 12; for mecoprop alone (% control): Example 7; for pendimethalin alone (% control): Example 14
# Description: as §1
# Lamium purpureum [10] = experiment: as above; conditions: LAMPU; for MCPA alone (% control): Example 4; for clodinafop alone (% control): Example 12; for ioxynil alone (% control): Example 8; for mecoprop alone (% control): Example 7
# Description: as §1
# Lolium perenne [11] = experiment: as above; conditions: LOLPE; for MCPA alone (% control): Example 4; for fenoxaprop alone (% control): Example 13; for mecoprop alone (% control): Example 7
# Description: as §1
# Papaver rhoeas [12] = experiment: as above; conditions: PAPRH, Example 1B
# Description: as §1
# Setaria viridis [13] = experiment: as above; conditions: SETVI; for IPU alone (% control): Example 1B; for MCPA alone (% control): Example 4; for carfentrazone alone (% control): Example 9; for cinidon-ethyl alone (% control): Example 10; for flupyrsulfuron alone (% control): Example 5
# Description: as §1
# Stellaria media [14] = experiment: as above; conditions: STEME; for fenoxaprop alone (% control): Example 13
# Description: as §1
# Veronica persica [15] = experiment: as above; conditions: VERPE, Example 1B
# Description: as §1
# Matricaria inodora = experiment: as above; conditions: MATIN; for carfentrazone alone (% control): Example 9; for cinidon-ethyl alone (% control): Example 10
# Description: as §1
# Galium aparine [16] = experiment: as above; conditions: GALAP; for clodinafop alone (% control): Example 12; for flupyrsulfuron alone (% control): Example 5
# Description: as §1
structure (smiles),measurement,setting,value
CC(C)c1ccc(NC(=O)N(C)C)cc1 [IPU],IPU alone (% control),"Alopecurus myosuroides [1]; 60 g/ha, Example 1A",43%
same,IPU alone (% control),Lamium purpureum [2]; 60 g/ha,0%
same,IPU alone (% control),Lamium purpureum [2]; 120 g/ha,15%
same,IPU alone (% control),Lamium purpureum [2]; 240 g/ha,70%
same,IPU alone (% control),Lolium perenne [3],40%
same,IPU alone (% control),Papaver rhoeas [4],0%
same,IPU alone (% control),Setaria viridis [5]; 60 g/ha,0%
same,IPU alone (% control),Setaria viridis [5]; 120 g/ha,20%
same,IPU alone (% control),Setaria viridis [5]; 240 g/ha,65%
same,IPU alone (% control),Stellaria media [6],15%
same,IPU alone (% control),Veronica persica [7]; 60 g/ha,0%
same,IPU alone (% control),Veronica persica [7]; 120 g/ha,0%
same,IPU alone (% control),Veronica persica [7]; 240 g/ha,0%
same,IPU alone (% control),"Galium aparine [8]; 120 g/ha, Example 1A",0%
same,IPU alone (% control),Alopecurus myosuroides [9]; 60 g/ha,15%
same,IPU alone (% control),Alopecurus myosuroides [9]; 120 g/ha,38%
same,IPU alone (% control),"Apera spica-venti; 60 g/ha, Example 1B",50%
same,IPU alone (% control),"Lamium purpureum [10]; 60 g/ha, Example 1B",0%
same,IPU alone (% control),"Lolium perenne [11]; 60 g/ha, Example 1B",38%
same,IPU alone (% control),Papaver rhoeas [12]; 60 g/ha,0%
same,IPU alone (% control),Papaver rhoeas [12]; 120 g/ha,25%
same,IPU alone (% control),Papaver rhoeas [12]; 240 g/ha,48%
same,IPU alone (% control),Setaria viridis [13]; 60 g/ha,15%
same,IPU alone (% control),Setaria viridis [13]; 120 g/ha,40%
same,IPU alone (% control),"Stellaria media [14]; 60 g/ha, Example 1B",25%
same,IPU alone (% control),Veronica persica [15]; 60 g/ha,15%
same,IPU alone (% control),Veronica persica [15]; 240 g/ha,5%
"CC(C)OC(=O)c1cc(-c2nn(C)c(C(F)(F)F)c2Br)c(F)cc1Cl [JV 485, isopropyl 2-chloro-4-fluoro-5-(4-bromo-1-methyl-6-trifluoromethyl-pyrazol-3-yl)-benzoate, reference compound]",JV 485 alone (% control),Alopecurus myosuroides [1]; 30 g/ha,10%
same,JV 485 alone (% control),Alopecurus myosuroides [1]; 60 g/ha,25%
same,JV 485 alone (% control),Alopecurus myosuroides [1]; 120 g/ha,65%
same,JV 485 alone (% control),Galium aparine [8]; 60 g/ha,0%
same,JV 485 alone (% control),Galium aparine [8]; 120 g/ha,63%
"Cc1cc(Cl)ccc1OCC(=O)O [MCPA, reference compound]",MCPA alone (% control),Alopecurus myosuroides [9]; 120 g/ha,0%
same,MCPA alone (% control),Alopecurus myosuroides [9]; 240 g/ha,0%
same,MCPA alone (% control),Alopecurus myosuroides [9]; 480 g/ha,0%
same,MCPA alone (% control),"Apera spica-venti; 240 g/ha, Example 4",0%
same,MCPA alone (% control),Lamium purpureum [10]; 120 g/ha,0%
same,MCPA alone (% control),Lamium purpureum [10]; 240 g/ha,0%
same,MCPA alone (% control),Lamium purpureum [10]; 480 g/ha,13%
same,MCPA alone (% control),Lolium perenne [11]; 120 g/ha,0%
same,MCPA alone (% control),Lolium perenne [11]; 240 g/ha,10%
same,MCPA alone (% control),Setaria viridis [13]; 120 g/ha,25%
same,MCPA alone (% control),Setaria viridis [13]; 240 g/ha,43%
same,MCPA alone (% control),"Stellaria media [14]; 480 g/ha, Example 4",65%
"Cc1nn(-c2cc(CC(Cl)C(=O)O)c(Cl)cc2F)c(=O)n1C(F)F (stereo not shown) [carfentrazone, reference compound]",carfentrazone alone (% control),Matricaria inodora; 1.88 g/ha,0%
same,carfentrazone alone (% control),Matricaria inodora; 15 g/ha,48%
same,carfentrazone alone (% control),Setaria viridis [13]; 1.88 g/ha,0%
same,carfentrazone alone (% control),Setaria viridis [13]; 15 g/ha,0%
same,carfentrazone alone (% control),"Stellaria media [14]; 1.88 g/ha, Example 9",0%
"CCOC(=O)C(Cl)=Cc1cc(N2C(=O)C3=C(CCCC3)C2=O)ccc1Cl [cinidon-ethyl, reference compound]",cinidon-ethyl alone (% control),Apera spica-venti; 25 g/ha,0%
same,cinidon-ethyl alone (% control),Apera spica-venti; 50 g/ha,0%
same,cinidon-ethyl alone (% control),"Galium aparine [16]; 25 g/ha, Example 10",20%
same,cinidon-ethyl alone (% control),Matricaria inodora; 12.5 g/ha,53%
same,cinidon-ethyl alone (% control),Matricaria inodora; 25 g/ha,68%
same,cinidon-ethyl alone (% control),Setaria viridis [13]; 25 g/ha,0%
same,cinidon-ethyl alone (% control),Setaria viridis [13]; 50 g/ha,0%
"C[C@@H](Oc1ccc(Oc2ncc(Cl)cc2F)cc1)C(=O)O [clodinafop, reference compound]",clodinafop alone (% control),"Alopecurus myosuroides [9]; 7.5 g/ha, Example 12",10%
same,clodinafop alone (% control),Apera spica-venti; 15 g/ha,0%
same,clodinafop alone (% control),Apera spica-venti; 30 g/ha,15%
same,clodinafop alone (% control),Galium aparine [16]; 7.5 g/ha,0%
same,clodinafop alone (% control),Galium aparine [16]; 15 g/ha,0%
same,clodinafop alone (% control),Galium aparine [16]; 30 g/ha,0%
same,clodinafop alone (% control),Lamium purpureum [10]; 7.5 g/ha,0%
same,clodinafop alone (% control),Lamium purpureum [10]; 15 g/ha,0%
same,clodinafop alone (% control),"Lolium perenne [11]; 15 g/ha, Example 12",65%
"CC(Oc1ccc(Oc2nc3ccc(Cl)cc3o2)cc1)C(=O)O (stereo not shown) [fenoxaprop, reference compound]",fenoxaprop alone (% control),Alopecurus myosuroides [9]; 15 g/ha,0%
same,fenoxaprop alone (% control),Alopecurus myosuroides [9]; 30 g/ha,0%
same,fenoxaprop alone (% control),"Apera spica-venti; 30 g/ha, Example 13",58%
same,fenoxaprop alone (% control),Lolium perenne [11]; 15 g/ha,3%
same,fenoxaprop alone (% control),Lolium perenne [11]; 60 g/ha,43%
same,fenoxaprop alone (% control),"Matricaria inodora; 30 g/ha, Example 13",0%
same,fenoxaprop alone (% control),Stellaria media [14]; 30 g/ha,0%
same,fenoxaprop alone (% control),Stellaria media [14]; 60 g/ha,0%
"COc1cc(OC)nc(NC(=O)NS(=O)(=O)c2nc(C(F)(F)F)ccc2C(=O)O)n1 [flupyrsulfuron, reference compound]",flupyrsulfuron alone (% control),Alopecurus myosuroides [9]; 2.5 g/ha,35%
same,flupyrsulfuron alone (% control),Alopecurus myosuroides [9]; 5 g/ha,53%
same,flupyrsulfuron alone (% control),Alopecurus myosuroides [9]; 10 g/ha,73%
same,flupyrsulfuron alone (% control),"Apera spica-venti; 2.5 g/ha, Example 5",0%
same,flupyrsulfuron alone (% control),Galium aparine [16]; 5 g/ha,0%
same,flupyrsulfuron alone (% control),Galium aparine [16]; 10 g/ha,0%
same,flupyrsulfuron alone (% control),"Lolium perenne [11]; 10 g/ha, Example 5",10%
same,flupyrsulfuron alone (% control),Setaria viridis [13]; 2.5 g/ha,0%
same,flupyrsulfuron alone (% control),Setaria viridis [13]; 5 g/ha,10%
same,flupyrsulfuron alone (% control),Setaria viridis [13]; 10 g/ha,10%
N#Cc1cc(I)c(O)c(I)c1 [ioxynil],ioxynil alone (% control),"Apera spica-venti; 120 g/ha, Example 8",0%
same,ioxynil alone (% control),Lamium purpureum [10]; 60 g/ha,0%
same,ioxynil alone (% control),Lamium purpureum [10]; 120 g/ha,15%
same,ioxynil alone (% control),Lamium purpureum [10]; 240 g/ha,28%
same,ioxynil alone (% control),"Lolium perenne [11]; 240 g/ha, Example 8",0%
"Cc1cc(Cl)ccc1OC(C)C(=O)O (stereo not shown) [mecoprop, reference compound]",mecoprop alone (% control),Apera spica-venti; 240 g/ha,0%
same,mecoprop alone (% control),Apera spica-venti; 480 g/ha,0%
same,mecoprop alone (% control),Apera spica-venti; 960 g/ha,0%
same,mecoprop alone (% control),Lamium purpureum [10]; 240 g/ha,10%
same,mecoprop alone (% control),Lamium purpureum [10]; 480 g/ha,48%
same,mecoprop alone (% control),Lolium perenne [11]; 240 g/ha,0%
same,mecoprop alone (% control),Lolium perenne [11]; 480 g/ha,0%
same,mecoprop alone (% control),Lolium perenne [11]; 960 g/ha,0%
"CCC(CC)Nc1c([N+](=O)[O-])cc(C)c(C)c1[N+](=O)[O-] [pendimethalin, reference compound]",pendimethalin alone (% control),Alopecurus myosuroides [9]; 120 g/ha,0%
same,pendimethalin alone (% control),Alopecurus myosuroides [9]; 240 g/ha,15%
same,pendimethalin alone (% control),Apera spica-venti; 120 g/ha,5%
same,pendimethalin alone (% control),Apera spica-venti; 240 g/ha,40%
same,pendimethalin alone (% control),"Galium aparine [16]; 120 g/ha, Example 14",23%
same,pendimethalin alone (% control),"Setaria viridis [13]; 480 g/ha, Example 14",40%
"CCS(=O)(=O)c1nc2ccccn2c1S(=O)(=O)NC(=O)Nc1nc(OC)cc(OC)n1 [sulfosulfuron, reference compound]",sulfosulfuron alone (% control),"Lolium perenne [11]; 3.75 g/ha, Example 6",18%
